The source of these data is US20190142971A1, “FORMULATION AND DELIVERY OF MODIFIED NUCLEOSIDE, NUCLEOTIDE, AND NUCLEIC ACID COMPOSITIONS” (ModernaTX, Inc., priority 2013, published 2019).

In data set [1] the test system is Balb-C mice. Nature of the data set: Example 88: chemically modified luciferase mRNA in PBS IM, SC, flux (Tables 136, 137). Format: in vivo. To be noted: luciferase mRNA in PBS (pH 7.4), 2.5 mg/kg. As for the experimental part: Twenty minutes prior to imaging, mice were injected intraperitoneally with a D-luciferin solution at 150 mg/kg. Animals were then anesthetized and images were acquired with an IVIS Lumina II imaging system (Perkin Elmer). Bioluminescence was measured as total flux (photons/second) of the entire mouse. The mice were imaged at 2 hours, 8 hours and 24 hours. […] The background signal was 3.84E+05 (p/s).

Data set [2] has as its system HEK293A. Nature of the data set: Example 44: signal sequence exchange, secreted G-CSF ELISA (Table 70). It is filed as cell-based. To be noted: 293A, 250 ng mRNA, Lipofectamine 2000, supernatant 24 hrs. An excerpt: (§1) These variants included the G-CSF constructs encoding either the wild-type N terminal secretory signal peptide sequence ([…]; SEQ ID NO: 19), no secretory signal peptide sequence, or secretory signal peptide sequences taken from other mRNAs. These included sequences where the wild type GCSF signal peptide sequence was replaced with the signal peptide sequence of either: human α-1-anti trypsin (AAT) ([…]; SEQ ID NO: 20), human Factor IX (FIX) ([…]; SEQ ID NO: 21), human Prolactin (Prolac) ([…]; SEQ ID NO: 22), or human Albumin (Alb) ([…]; SEQ ID NO: 23).
(§2) 250 ng of modified mRNA encoding each G-CSF variant was transfected into HEK293A (293A in the table), mouse myoblast (MM in the table) (C2C12, CRL-1772, ATCC) and rat myoblast (RM in the table) (L6 line, CRL-1458, ATCC) cell lines in a 24 well plate using 1 ul of Lipofectamine 2000 (Life Technologies), each well containing 300,000 cells. […] The data shown in Table 70 reveal that cells transfected with G-CSF mmRNA encoding the Albumin signal peptide secrete at least 12 fold more G-CSF protein than its wild type counterpart.
In general terms: An ELISA detects its analyte on a solid surface through an enzyme-linked reagent.

Data set [3] concerns mouse myoblast (C2C12). The data set is described as above. It is filed as cell-based. To be noted: MM (mouse myoblast C2C12), 250 ng mRNA, supernatant 24 hrs.
From the text: as §1, §2

In data set [4] the test system is rat myoblast (L6 line). The data set is described as above. To be noted: RM (rat myoblast L6), 250 ng mRNA, supernatant 24 hrs. Format: cell-based.
From the text: as §1, §2

For data set [5], the system named is HeLa cells. Nature of the data set: Example 75: chemical modifications of luciferase mRNA, RLU (Table 114). Format: cell-based. To be noted: 83 ng luciferase mRNA, 18 to 22 hours. How it is done: The day before transfection, 20,000 HeLa cells (ATCC no. CCL-2; Manassas, Va.) were harvested by treatment with Trypsin-EDTA solution (Life Technologies, Grand Island, N.Y.) and seeded in a total volume of 100 ul EMEM medium (supplemented with 10% FCS and 1× Glutamax) per well in a 96-well cell culture plate (Corning, Manassas, Va.). The cells were grown at 37° C. in 5% CO2 atmosphere overnight. […] Lipofectamine 2000 (LifeTechnologies, Grand Island, N.Y.) was used as transfection reagent and 0.2 ul were diluted in 10 ul final volume of OPTI-MEM. After 5 minutes of incubation at room temperature, both solutions were combined and incubated an additional 15 minute at room temperature. Then the 20 ul combined solution was added to the 100 ul cell culture medium containing the HeLa cells and incubated at room temperature.
After 18 to 22 hours of incubation cells expressing luciferase were lysed with 100 ul of Passive Lysis Buffer (Promega, Madison, Wis.) according to manufacturer instructions. Aliquots of the lysates were transferred to white opaque polystyrene 96-well plates (Corning, Manassas, Va.) and combined with 100 ul complete luciferase assay solution (Promega, Madison, Wis.). The lysate volumes were adjusted or diluted until no more than 2 mio relative light units (RLU) per well were detected for the strongest signal producing samples and the RLUs for each chemistry tested are shown in Table 114. The plate reader was a BioTek Synergy H1 (BioTek, Winooski, Vt.). The background signal of the plates without reagent was about 200 relative light units per well.

Data set [6] relates to mice. Briefly: Example 41: IV lipoplexed G-CSF mRNA in mice, neutrophil count (Table 66). Format: in vivo. To be noted: IV 10% lipoplex, 50 ug at days 0, 2, 4; day 5. How it is done: Neutrophils were measured at days 1, 5 and 8. Controls included non-specific mammalian RNA or the formulation buffer alone (F.Buffer). The mice were bled at days 1, 5 and 8 to determine the effect of mRNA-encoded human G-CSF to increase neutrophil count. The dosing regimen is shown in Table 66 as are the resulting neutrophil counts (thousands/uL; K/uL).

Data set [7] relates to human PBMC. Briefly: Example 45: PBMC transfection, IFN-alpha ELISA (Table 72). Format: cell-based. How it is done: The plates were then incubated at 37 C.
Each condition was done in duplicate.
Shown in Tables 71 and 72 are the average from 2 separate PBMC donors of the G-CSF and IFN-alpha production over time as measured by specific ELISA.

In data set [8] the test system is BALB/C mice. Nature of the data set: Example 59: G-CSF mRNA IM in mice, serum human G-CSF and mouse IFN-alpha ELISA (Table 93). Format: in vivo.
Data set [9] is described as follows: Example 61: storage stability of G-CSF mRNA, gel electrophoresis (Bio-Rad EXPERION). It is filed as physicochemical. How it is done:
Stability experiments were conducted to obtain a better understanding of storage conditions to retain the integrity of modified RNA. […] After the mRNA had been stored for 0 hours, 2 hours, 6 hours, 24 hours, 48 hours, 5 days and 14 days, the mRNA was analyzed by gel electrophoresis using a Bio-Rad EXPERION™ system. The modified, unmodified and lipoplexed G-CSF mRNA was also stored in RNASTABLE® (Biomatrica, Inc. San Diego, Calif.) at 40° C. or water at −80° C. or 40° C. for 35 days before being analyzed by gel electrophoresis.
mRNA samples stored at 4° C., 25° C. and 37° C. were stored in 1×TE buffer or the formulation buffer (150 mM sodium chloride, 2 mM calcium chloride, 2 mM phosphate, 0.5 mM EDTA at a pH of 6.5). The mRNA stored at 4° C. was stable to at least 60 days in both the TE and formulation buffer. At 25° C. the mRNA in formulation buffer was stable out to 14 days and the TE buffer was stable out to at least 6 days. Storage of mRNA in the formulation buffer at 37° C. was stable to 6 days compared to the TE buffer which was stable only until 4 days.

For data set [10], the system named is BJ fibroblasts.
Setting [11] is: I.M., 200 ug/mouse (R848 75 ug/mouse), 50 ul, 8 hours after dosing.

In the case of `CC(=O)Nc1ccn([C@@H]2O[C@H](CO)[C@@H](O)[C@H]2O)c(=O)n1` [Formulation N4-acetylcytidine, N4-acetylcytidine], the “Flux, Intramuscular Administration” value in data set [1] (2 hours) turned out to be 1.32E+07 p/s; in data set [1] (8 hours), 2.15E+07 p/s; in data set [1] (24 hours), 4.01E+07 p/s. Besides, the “Flux, Subcutaneous Administration” value in data set [1] (2 hours) was determined as 3.07E+07 p/s; in data set [1] (8 hours), 1.23E+07 p/s; in data set [1] (24 hours) it was 1.28E+07 p/s.
As to Prolactin, the “secreted G-CSF protein” value in [2] is 7875 pg/mL; in data set [3], 1525 pg/mL; in data set [4] it was 9800 pg/mL.
With `CC(=O)Nc1ccn([C@@H]2O[C@H](CO)[C@@H](O)[C@H]2O)c(=O)n1` [Sample N4-Acetylcytidine, N4-Acetylcytidine], the RLU in data set [5] came to 1073251 RLU.
The same measure, in the same setting: then `O=c1[nH]c(=O)n([C@@H]2O[C@H](CO)[C@@H](O)[C@H]2O)cc1Br` [Sample 5-Bromouridine, 5-Bromouridine], with 6787 RLU; and `COc1cn([C@@H]2O[C@H](CO)[C@@H](O)[C@H]2O)c(=O)[nH]c1=O` [Sample 5-methoxyuridine, 5-methoxyuridine], with 219657 RLU.
Albumin: the “secreted G-CSF protein” value in data set [2] was 122050 pg/mL; in data set [3] it was 81050 pg/mL; in data set [4], 173300 pg/mL.
For the molecule `Cn1cc([C@@H]2O[C@H](CO)[C@@H](O)[C@H]2O)c(=O)[nH]c1=O` [Sample N1-methylpseudouridine, N1-methylpseudouridine], the RLU in data set [5] was determined as 3068261 RLU.
As to `COc1cn([C@@H]2O[C@H](CO)[C@@H](O)[C@H]2O)c(=O)[nH]c1=O` [Formulation 5-methoxyuridine, 5-methoxyuridine], the “Flux, Intramuscular Administration” value in [1] (2 hours) was found to be 4.93E+06 p/s; in [1] (8 hours), 1.80E+07 p/s; in data set [1] (24 hours), 4.53E+07 p/s. For the same molecule, the figures for the “Flux, Subcutaneous Administration” value in data set [1] (2 hours), in [1] (8 hours) and in data set [1] (24 hours) were 7.10E+06 p/s, 9.38E+06 p/s and 1.32E+07 p/s, respectively.
Take 5-methylcytosine and pseudouridine: the RLU in [5] worked out at 1601234 RLU.
In the case of α-1-anti trypsin, the “secreted G-CSF protein” value in data set [2] amounted to 9950 pg/mL; in data set [3], 5000 pg/mL; in data set [4], 8475 pg/mL.
For the molecule `O=c1[nH]cc([C@@H]2O[C@H](CO)[C@@H](O)[C@H]2O)c(=O)[nH]1` [Pseudouridine], the RLU in data set [5] was found to be 140234 RLU.

B1: unmodified G-CSF mRNA: G-CSF mRNA (SEQ ID NO: 4) with natural NTPs, Cap1 (nucleic acid)
chain: GGGAAAUAAGAGAGAAAAGAAGAGUAAGAAGAAAUAUAAGAGCCACCAUGGCCGGUCCCGCGACCCAAAGCCCCAUGAAACUUAUGGCCCUGCAGUUGCUGCUUUGGCACUCGGCCCUCUGGACAGUCCAAGAAGCGACUCCUCUCGGACCUGCCUCAUCGUUGCCGCAGUCAUUCCUUUUGAAGUGUCUGGAGCAGGUGCGAAAGAUUCAGGGCGAUGGAGCCGCACUCCAAGAGAAGCUCUGCGCGACAUACAAACUUUGCCAUCCCGAGGAGCUCGUACUGCUCGGGCACAGCUUGGGGAUUCCCUGGGCUCCUCUCUCGUCCUGUCCGUCGCAGGCUUUGCAGUUGGCAGGGUGCCUUUCCCAGCUCCACUCCGGUUUGUUCUUGUAUCAGGGACUGCUGCAAGCCCUUGAGGGAAUCUCGCCAGAAUUGGGCCCGACGCUGGACACGUUGCAGCUCGACGUGGCGGAUUUCGCAACAACCAUCUGGCAGCAGAUGGAGGAACUGGGGAUGGCACCCGCGCUGCAGCCCACGCAGGGGGCAAUGCCGGCCUUUGCGUCCGCGUUUCAGCGCAGGGCGGGUGGAGUCCUCGUAGCGAGCCACCUUCAAUCAUUUUUGGAAGUCUCGUACCGGGUGCUGAGACAUCUUGCGCAGCCGUGAAGCGCUGCCUUCUGCGGGGCUUGCCUUCUGGCCAUGCCCUUCUUCUCUCCCUUGCACCUGUACCUCUUGGUCUUUGAAUAAAGCCUGAGUAGGAAG
modifications: Cap1
As to B1, the “increase in neutrophil count above control” value in data set [6] is listed as “no pharmacologic effect”. For the same molecule, the “IFN-alpha / cytokine production” value in data set [7] is listed as “substantial IFN-alpha production”. The “Protein: Cytokine Ratio (PC Ratio)” value in data set [8] (G-CSF / IFN-alpha) came to 9. Further, in [8] (setting [11]), the “G-CSF protein (human, serum)” value is 605.6 pg/mL and the “IFN-alpha expression (mouse, serum)” value worked out at 67.01 pg/mL. Also, in [8] (I.M., 200 ug/mouse (R848 75 ug/mouse), 8 hours after dosing), the “PC Ratio (Protein: Cytokine Ratio)” value is recorded as 9. In [8] (IM, 8 hours), the “human G-CSF expression in mouse serum” value is recorded as “resulted in human G-CSF expression in mouse serum” and the “mouse IFN-alpha in the serum (cytokine response)” value is recorded as “robust cytokine response”. The molecule further registered a freeze/thaw cycles tolerated in [9] of 12 cycles. Besides, in data set [9] (stored at 25° C.), the “stable out to” value was 48 h. The “stable out to” value in [9] (stored at 37° C.) was 6 h. For the same molecule, the “stable out to” value in data set [9] (stored at 50° C.) turned out to be 2 h. Besides, the “time to cytokine response (IFN-beta, IL-6)” value in data set [10] is listed as “after one day”.
